Experimental data: the OPERA property sets (Mansouri et al. 2018)

SMILES	logP
COc1ccc(F)cc1	2.26
COc1cccc(F)c1	2.36
COc1cccc(Br)c1	3.03
Cc1ccc(Br)cc1	3.42
Clc1ccc(Br)cc1	3.54
Fc1ccc(F)cc1	2.13
Cc1ccc(F)cc1	2.58
COc1ccc(OC)cc1	2.04
Fc1ccc(Br)cc1	3.08
Fc1ccc(Cl)cc1	2.78
CC(=O)c1cccc(N)c1	0.83
Fc1cccc(Br)c1	2.92
Cc1cccc(Br)c1	3.41
Fc1cccc(F)c1	2.21
Clc1cccc(Br)c1	3.7
CC(=O)c1cccc(C)c1	2.15
CC(=O)c1cccc(Br)c1	2.47
COc1ccc(Br)cc1	3.05
Cc1cccc(F)c1	2.75
